Data as given in paper PMC6010102, “N-thioalkylcarbazoles derivatives as new anti-proliferative agents: synthesis, characterisation and molecular mechanism evaluation” (Journal of Enzyme Inhibition and Medicinal Chemistry, 2018).

Experiments:
caspase-9 = assay: Caspase-Glo assay, caspase-9; type: cell-based, human; settings: HeLa cells, concentration equal to IC50, 24 h
Protocol: Caspases-3/7, -8 and -9 activities were measured with the Caspase-Glo Assay, according to the guidelines of manufacturer (Caspase-Glo® 3/7, 8 and 9 Assay Systems, Promega Corporation, Madison, WI) as described in Iacopetta et al.[43].

hTopoI = biological target: T1, hTopoI (Homo sapiens, UniProt P11387); assay: Human topoisomerase I relaxation assay; type: biochemical; settings: direct in vitro assay, data not shown
T1 sequence (P11387 1-765): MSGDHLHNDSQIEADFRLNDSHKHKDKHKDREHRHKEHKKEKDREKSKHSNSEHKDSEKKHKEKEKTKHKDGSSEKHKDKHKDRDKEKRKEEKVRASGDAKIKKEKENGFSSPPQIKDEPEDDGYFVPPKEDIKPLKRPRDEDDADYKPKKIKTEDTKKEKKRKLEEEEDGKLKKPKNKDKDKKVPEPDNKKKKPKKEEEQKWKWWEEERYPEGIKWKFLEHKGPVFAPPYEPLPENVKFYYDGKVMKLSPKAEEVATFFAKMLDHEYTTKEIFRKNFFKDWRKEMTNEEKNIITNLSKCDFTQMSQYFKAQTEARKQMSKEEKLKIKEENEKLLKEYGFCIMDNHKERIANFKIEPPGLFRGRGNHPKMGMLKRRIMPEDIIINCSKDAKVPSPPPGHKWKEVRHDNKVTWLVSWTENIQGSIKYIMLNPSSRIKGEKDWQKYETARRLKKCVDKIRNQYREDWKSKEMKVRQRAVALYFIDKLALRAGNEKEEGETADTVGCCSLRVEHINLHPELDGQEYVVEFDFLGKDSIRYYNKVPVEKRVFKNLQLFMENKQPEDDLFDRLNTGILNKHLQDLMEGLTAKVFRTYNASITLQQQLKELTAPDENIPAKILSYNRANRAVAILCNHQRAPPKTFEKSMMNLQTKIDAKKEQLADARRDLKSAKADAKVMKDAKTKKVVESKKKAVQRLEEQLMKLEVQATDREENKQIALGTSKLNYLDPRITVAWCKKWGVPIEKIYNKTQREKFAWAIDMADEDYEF
Protocol: Human topoisomerase I relaxation assay: hTopoI relaxation assays were performed as reported in Iacopetta et al.[8].

[1] = system: HeLa human epithelial cervix carcinoma cells; assay: MTT cell viability, HeLa; type: cell-based; settings: 72 h exposure, mean ± SD, read-out: Antiproliferative activity IC50, HeLa
Text: (§1) The six cell lines used in this work were purchased from American Type Culture Collection (ATCC, Manassas, VA). MCF-7 human breast cancer cells, oestrogen receptor (ER) positives, were maintained in Dulbecco’s Modified Eagle’s Medium/Nutrient Mixture F-12 Ham (DMEM/F12), supplemented with 5% foetal bovine serum (FBS) and 100 U/ml penicillin/streptomycin, as previously described. MDA-MB-231, human breast cancer cells, oestrogen receptor (ER) negative, were maintained in Dulbecco’s Modified Eagle’s Medium/Nutrient Mixture F-12 Ham (DMEM/F12), supplemented with 5% Newborn Calf Serum (NCS) and 100 U/ml penicillin/streptomycin. HeLa human epithelial cervix carcinoma cells, oestrogen receptor (ER) negative, and ISHIKAWA human endometrial adenocarcinoma cell, oestrogen receptor positive, were maintained in minimum essential medium (MEM), supplemented with 10% FBS, 100 U/ml penicillin/streptomycin and 1% non-essential amino acid. 3T3-L1 cells line of murine fibroblasts of embryonic type, were maintained in DMEM, supplemented with 10% NCS and 100 U/ml penicillin/streptomycin. MCF-10A human mammary epithelial cells were cultured in DMEM/F12 medium, supplemented with 5% horse serum (HS) (Eurobio, Les Ullis, Cedex, France), 100 U/ml penicillin/streptomycin, […] hydrocortisone, 20 ng/ml hEGF (human epidermal growth factor), 10 μg/ml insulin and […] cholera enterotoxin (Sigma-Aldrich, Milano, Italy). Cells were maintained at 37 °C in a humidified atmosphere of 95% air and 5% CO2 and periodically screened for contamination.
(§2) MDA-MB-231, MCF-7, HeLa and ISHIKAWA cells were grown in complete medium and, before being treated, they were serum deprived for 24 h, to allow cell cycle synchronisation. Then cells were grown in phenol red-free medium supplemented with 1% DCC (destran-coated charcoal treated) FBS, then treated with increasing concentrations (0.1, 1, 10, 20, 40, 100 µM) of each compound for 72 h. Compounds were dissolved in dimethylsulphoxide (DMSO) (Sigma, St. Louis, MO) and diluted in each cell medium. Untreated cells, used as a control, were added with DMSO alone (final concentration 0.1%). Cell viability was assessed using the 3-[4,5-dimethylthiazol-2-yl]-2,5-diphenyltetrazolium bromide reagent (MTT), according to the protocol from manufacturer (Sigma-Aldrich, Milan, Italy), as previously described[37] ^, [38]. For each sample, the mean absorbance, measured at 570 nm, was expressed as a percentage of the control and plotted versus drug concentration to determine for each cell line the IC50 values (namely, drugs concentrations able to reduce cell viability of 50% with respect to the control), using GraphPad Prism 5 Software (GraphPad Inc., San Diego, CA)[39]. Each experiment was carried out in quadruplicate. Standard deviations (SD) were shown.

[2] = system: 3T3-L1 murine fibroblasts; assay: MTT cell viability, 3T3-L1; type: cell-based; settings: Mus musculus, non-tumoural cells, 72 h exposure, mean ± SD, read-out: Antiproliferative activity IC50, 3T3-L1
Text: as §1, §2

[3] = system: MCF-7 human breast cancer cells; assay: MTT cell viability, MCF-7; type: cell-based; settings: MCF7, 72 h exposure, mean ± SD, read-out: Antiproliferative activity IC50, MCF-7
Text: as §1, §2

[4] = system: MDA-MB-231 human breast cancer cells; assay: MTT cell viability, MDA-MB-231; type: cell-based; settings: 72 h exposure, mean ± SD, read-out: Antiproliferative activity IC50, MDA-MB-231
Text: as §1, §2

[5] = system: ISHIKAWA human endometrial adenocarcinoma cells; assay: MTT cell viability, ISHIKAWA; type: cell-based; settings: 72 h exposure, mean ± SD, read-out: Antiproliferative activity IC50, ISHIKAWA
Text: as §1, §2

Cc1ccc(C)c2c1c1cc(Br)ccc1n2CCCCCCCS [5c, 7-(6-Bromo-1,4-dimethyl-9H-carbazol-9-yl)-heptane-1-thiol]
caspase-9 activity (caspase-9): little, but significant, rise of caspase-9 activity | hTopoI inhibition (hTopoI): no inhibition | IC50 [1]: 11.3 ± 0.63 µM | IC50 [2]: > 100 µM | IC50 [3]: 54.9 ± 1 µM | IC50 [4]: 27.2 ± 0.75 µM | IC50 [5]: 15.7 ± 0.95 µM
